Counter-ions that a name gives are not always drawn. Like-named read-outs stand apart in the source and are kept apart here.
Key:
Assay type in all cases: biochemical
TYK2 = TYK2 (Homo sapiens, UniProt P29597); assay: TYK2 kinase inhibition (Table A1)
[1] = target: T1, human JAK3 (a.a. 781-1124) (Homo sapiens, UniProt P52333); assay: In vitro JAK kinase assay (HTRF, phosphorylation of a biotinylated peptide), JAK3
T1 construct: JAK3 (a.a. 781-1124); His tag (N); made in house; host or cells: insect cells (baculovirus)
T1 sequence (P52333 781-1124): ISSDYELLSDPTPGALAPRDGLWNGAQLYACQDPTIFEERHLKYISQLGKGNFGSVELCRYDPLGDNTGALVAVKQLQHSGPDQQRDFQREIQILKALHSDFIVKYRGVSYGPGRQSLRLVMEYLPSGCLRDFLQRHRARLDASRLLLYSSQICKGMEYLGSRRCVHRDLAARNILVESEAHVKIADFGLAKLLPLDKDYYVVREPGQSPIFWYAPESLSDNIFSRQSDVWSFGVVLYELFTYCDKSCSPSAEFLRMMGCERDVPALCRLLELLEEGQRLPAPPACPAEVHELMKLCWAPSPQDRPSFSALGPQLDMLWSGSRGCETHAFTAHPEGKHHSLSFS
Outline: (§1)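 Kinase reactions ran at room temperature for 1 h with ATP matched per isoform (JAK1 90 μM, JAK2 30 μM, JAK3 3 μM). After an EDTA stop, the phosphorylated biotin-peptide was read by HTRF using Eu-Py20 and SA-APC after 40 min binding.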

[2] = target: T2, human JAK2 (a.a. 828-1132) (Homo sapiens, UniProt O60674); assay: In vitro JAK kinase assay (HTRF, phosphorylation of a biotinylated peptide), JAK2
T2 construct: JAK2 (a.a. 828-1132); His tag (N); made in house; host or cells: insect cells (baculovirus)
T2 sequence (O60674 828-1132): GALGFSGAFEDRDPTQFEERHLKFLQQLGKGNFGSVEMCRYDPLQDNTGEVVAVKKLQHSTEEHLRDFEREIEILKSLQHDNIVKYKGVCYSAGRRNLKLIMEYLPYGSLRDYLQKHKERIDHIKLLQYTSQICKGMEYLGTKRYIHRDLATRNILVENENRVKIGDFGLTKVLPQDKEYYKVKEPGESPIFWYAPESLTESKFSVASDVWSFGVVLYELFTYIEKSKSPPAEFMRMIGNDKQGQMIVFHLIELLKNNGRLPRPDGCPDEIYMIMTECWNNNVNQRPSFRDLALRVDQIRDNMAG
Outline: as §1

[3] = target: T3, human JAK1 (a.a. 837-1142) (Homo sapiens, UniProt P23458); assay: In vitro JAK kinase assay (HTRF, phosphorylation of a biotinylated peptide), JAK1; conditions: read-out: JAK1 IC50
T3 construct: human JAK1 (a.a. 837-1142); His tag (N); made in house; host or cells: insect cells (baculovirus)
T3 sequence (P23458 849-1154): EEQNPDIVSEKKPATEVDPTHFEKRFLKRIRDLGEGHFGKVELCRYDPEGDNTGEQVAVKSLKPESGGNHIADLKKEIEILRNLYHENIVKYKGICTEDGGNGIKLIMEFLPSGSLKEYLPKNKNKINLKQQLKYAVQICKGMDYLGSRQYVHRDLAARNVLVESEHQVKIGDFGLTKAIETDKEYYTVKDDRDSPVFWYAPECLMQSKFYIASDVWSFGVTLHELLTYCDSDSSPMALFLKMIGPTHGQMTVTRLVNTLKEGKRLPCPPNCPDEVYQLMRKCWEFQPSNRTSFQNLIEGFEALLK
Outline: as §1

[4] = target: T4, Recombinant Human Anaplastic Lymphoma Kinase (Homo sapiens, UniProt Q9UM73); assay: ALK HTRF kinase assay
T4 construct: purchased Invitrogen, Carlsbad, Calif
T4 sequence (Q9UM73 19-1620): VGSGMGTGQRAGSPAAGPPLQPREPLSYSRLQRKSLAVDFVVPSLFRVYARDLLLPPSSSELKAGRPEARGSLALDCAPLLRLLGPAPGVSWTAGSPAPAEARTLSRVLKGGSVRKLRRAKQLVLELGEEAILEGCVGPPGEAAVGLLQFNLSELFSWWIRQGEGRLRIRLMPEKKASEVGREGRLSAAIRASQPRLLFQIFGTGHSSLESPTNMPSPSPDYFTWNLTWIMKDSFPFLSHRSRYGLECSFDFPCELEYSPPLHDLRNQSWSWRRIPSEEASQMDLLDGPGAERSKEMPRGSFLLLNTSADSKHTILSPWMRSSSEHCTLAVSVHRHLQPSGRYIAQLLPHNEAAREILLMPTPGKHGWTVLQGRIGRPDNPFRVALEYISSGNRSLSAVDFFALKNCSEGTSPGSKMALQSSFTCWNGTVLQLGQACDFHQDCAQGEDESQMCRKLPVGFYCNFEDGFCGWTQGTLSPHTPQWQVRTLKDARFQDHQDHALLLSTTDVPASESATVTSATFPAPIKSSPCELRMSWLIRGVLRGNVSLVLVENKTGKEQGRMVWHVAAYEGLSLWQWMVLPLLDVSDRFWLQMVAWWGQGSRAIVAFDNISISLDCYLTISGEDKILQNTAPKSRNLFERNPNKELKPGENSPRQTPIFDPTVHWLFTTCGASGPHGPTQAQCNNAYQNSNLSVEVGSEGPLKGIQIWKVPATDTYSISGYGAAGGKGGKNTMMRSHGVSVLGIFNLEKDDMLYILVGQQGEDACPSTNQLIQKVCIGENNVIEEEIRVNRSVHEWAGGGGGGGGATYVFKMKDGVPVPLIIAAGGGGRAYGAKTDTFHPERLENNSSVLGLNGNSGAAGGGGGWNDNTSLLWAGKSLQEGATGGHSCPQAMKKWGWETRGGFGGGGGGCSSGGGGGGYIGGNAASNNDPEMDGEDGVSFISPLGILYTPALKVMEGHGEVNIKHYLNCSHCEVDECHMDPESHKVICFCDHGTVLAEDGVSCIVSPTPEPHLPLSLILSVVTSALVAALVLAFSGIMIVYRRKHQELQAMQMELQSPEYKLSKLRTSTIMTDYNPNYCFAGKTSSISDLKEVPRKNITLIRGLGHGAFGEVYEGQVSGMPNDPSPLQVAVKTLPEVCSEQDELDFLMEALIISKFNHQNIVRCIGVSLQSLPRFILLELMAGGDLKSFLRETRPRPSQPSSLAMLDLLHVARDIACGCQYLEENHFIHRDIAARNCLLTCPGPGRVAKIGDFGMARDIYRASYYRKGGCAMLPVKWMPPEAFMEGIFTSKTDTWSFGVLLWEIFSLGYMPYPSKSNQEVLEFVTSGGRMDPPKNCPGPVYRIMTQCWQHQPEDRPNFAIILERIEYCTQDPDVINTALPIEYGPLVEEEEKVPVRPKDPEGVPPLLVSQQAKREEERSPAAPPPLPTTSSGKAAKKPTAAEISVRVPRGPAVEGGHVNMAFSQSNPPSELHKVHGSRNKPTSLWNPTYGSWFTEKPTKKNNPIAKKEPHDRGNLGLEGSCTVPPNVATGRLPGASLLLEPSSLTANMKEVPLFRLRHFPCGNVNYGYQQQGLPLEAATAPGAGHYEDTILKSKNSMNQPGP
Outline: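 Compounds were incubated with recombinant human ALK and a biotin-tagged peptide substrate. Product was captured with streptavidin-APC and probed with a europium anti-phosphotyrosine antibody, and plates were read for time-resolved fluorescence. Dose-response data were fitted to derive IC50.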

[5] = percentage inhibition of the example compound at a concentration of 500 nM or 1 mM (not specified which)
[6] = method AA1 (3 μM ATP) or AA2 (1000 μM ATP), not stated per value
[7] = method AA1 (30 μM ATP) or AA2 (1000 μM ATP), not stated per value
[8] = method AA1 (90 μM ATP) or AA2 (1000 μM ATP), not stated per value
[9] = compound at 500 nM or 1 mM, 90 μM ATP
[10] = compound at a concentration of 500 nM or 1 mM (not specified), cells shown as percentage

Chain of TYK2 (P29597 whole entry): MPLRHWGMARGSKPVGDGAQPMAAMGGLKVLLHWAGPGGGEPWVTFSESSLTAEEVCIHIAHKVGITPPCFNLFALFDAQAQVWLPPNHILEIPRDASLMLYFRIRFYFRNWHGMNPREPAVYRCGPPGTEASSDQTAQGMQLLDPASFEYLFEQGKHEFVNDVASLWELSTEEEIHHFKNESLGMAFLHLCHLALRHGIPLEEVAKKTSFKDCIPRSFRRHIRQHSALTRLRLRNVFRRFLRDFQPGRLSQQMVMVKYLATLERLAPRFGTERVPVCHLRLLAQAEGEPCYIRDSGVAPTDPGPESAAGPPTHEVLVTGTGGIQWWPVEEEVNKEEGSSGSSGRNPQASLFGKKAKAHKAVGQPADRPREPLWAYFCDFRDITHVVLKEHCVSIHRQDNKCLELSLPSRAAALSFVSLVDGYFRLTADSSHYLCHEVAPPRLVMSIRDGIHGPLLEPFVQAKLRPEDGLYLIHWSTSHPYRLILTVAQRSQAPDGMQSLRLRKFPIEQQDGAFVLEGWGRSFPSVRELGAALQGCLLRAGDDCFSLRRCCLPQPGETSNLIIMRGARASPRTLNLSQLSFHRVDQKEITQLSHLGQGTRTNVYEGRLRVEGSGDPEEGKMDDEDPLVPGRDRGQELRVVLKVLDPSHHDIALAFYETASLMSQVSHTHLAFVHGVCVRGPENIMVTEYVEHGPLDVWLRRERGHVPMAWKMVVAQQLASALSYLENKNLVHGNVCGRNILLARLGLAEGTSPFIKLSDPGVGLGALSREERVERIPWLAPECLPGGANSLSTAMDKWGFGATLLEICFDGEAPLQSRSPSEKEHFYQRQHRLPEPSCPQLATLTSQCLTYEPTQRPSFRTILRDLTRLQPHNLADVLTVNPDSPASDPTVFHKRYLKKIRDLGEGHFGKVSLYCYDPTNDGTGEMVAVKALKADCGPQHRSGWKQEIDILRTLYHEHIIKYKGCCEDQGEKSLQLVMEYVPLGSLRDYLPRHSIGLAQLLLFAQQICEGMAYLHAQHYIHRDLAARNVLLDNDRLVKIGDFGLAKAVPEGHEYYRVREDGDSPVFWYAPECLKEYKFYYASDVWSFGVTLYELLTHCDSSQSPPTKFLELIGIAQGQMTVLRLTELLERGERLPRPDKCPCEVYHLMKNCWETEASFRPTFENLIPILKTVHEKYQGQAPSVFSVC

SMILES | IC50 (TYK2; Table B1) [µM] | IC50 ([1]; Table B1) [µM] | IC50 ([2]; Table B1) [µM] | IC50 ([3]; Table B1) [µM] | IC50 (TYK2) [µM] | IC50 [1, 6] [µM] | IC50 [2, 7] [µM] | IC50 [3, 8] [µM] | ALK % of inhibition at a concentration of 500 nM or 1 mM [4, 9] [%] | further results
Cn1cc(C(=O)N2CCC(CC(=O)Nc3ccc4cc3CCc3cncc(c3)Nc3ncc(Cl)c(n3)N4)CC2)cn1 [Example A129, N-[6-Chloro-2,4,8,18,22-pentaazatetracyclo[14.3.1.1(3,7).1(9,13)]docosa-1(20),3(22),4,6,9(21),10,12,16,18-nonaen-12-yl]-2-{1-[(1-methyl-1H-pyrazol-4-yl)carbonyl]piperidin-4-yl}acetamide bis(trifluoroacetate)] | – | – | – | – | 0.024 | 0.178 | 0.017 | 0.012 | 32 | –
CCS(=O)(=O)N1CCC(CC(=O)Nc2ccc3cc2CCc2cccc(c2)Nc2ncc(Cl)c(n2)N3)CC1 [Example A83, N-[6-Chloro-2,4,8,22-tetraazatetracyclo[14.3.1.1(3,7).1(9,13)]docosa-1(20),3(22),4,6,9(21),10,12,16,18-nonaen-12-yl]-2-[1-(ethylsulfonyl)piperidin-4-yl]acetamide trifluoroacetate] | – | – | – | – | 0.0025 | 0.012 | 0.0025 | 0.0019 | 41 | –
O=C(CC1CCN(C(=O)c2cnon2)CC1)Nc1ccc2cc1CCc1cncc(c1)Nc1ncc(Cl)c(n1)N2 [Example A138, N-[6-Chloro-2,4,8,18,22-pentaazatetracyclo[14.3.1.1(3,7).1(9,13)]docosa-1(20),3(22),4,6,9(21),10,12,16,18-nonaen-12-yl]-2-[1-(1,2,5-oxadiazol-3-ylcarbonyl)piperidin-4-yl]acetamide bis(trifluoroacetate)] | – | – | – | – | 0.008 | 0.03 | 0.0072 | 0.002 | 46 | –
CC(=O)N1CCN(C(=O)COc2ccc3cc2CCc2cccc(c2)Nc2ncc(Cl)c(n2)N3)CC1 [Example A20, 12-[2-(4-Acetylpiperazin-1-yl)-2-oxoethoxy]-6-chloro-2,4,8,22-tetraazatetracyclo[14.3.1.1(3,7).1(9,13)]docosa-1(20),3(22),4,6,9(21),10,12,16,18-nonaene trifluoroacetate] | – | – | – | – | 0.027 | 0.078 | 0.0082 | 0.012 | 17 | –
O=C(Nc1ccc2cc1CCc1cccc(c1)Nc1ncc(Cl)c(n1)N2)[C@@H]1CCNC1 [Example A45, (3R)—N-[6-chloro-2,4,8,22-tetraazatetracyclo[14.3.1.1(3,7).1(9,13)]docosa-1(20),3(22),4,6,9(21),10,12,16,18-nonaen-12-yl]pyrrolidine-3-carboxamide bis(trifluoroacetate)] | – | – | – | – | 0.039 | 0.031 | 0.02 | 0.0096 | 29 | –
O=C(Nc1ccccc1)Nc1cc2cc(c1)OCCSc1cccc(c1)Nc1nc(ncc1Cl)N2 [Example D65, N-[6-Chloro-17-oxa-14-thia-2,4,8,24-tetraazatetracyclo[16.3.1.1(3,7).1(9,13)]tetracosa-1(22),3(24),4,6,9(23),10,12,18,20-nonaen-20-yl]-N′-phenylurea trifluoroacetate] | – | – | – | – | – | – | – | – | – | IC50 (TYK2; Table D1): 0.0064 µM; IC50 ([1]; Table D1): 0.016 µM; IC50 ([2]; Table D1): 0.0051 µM; IC50 ([3]; Table D1): 0.018 µM; IC50 ([4]; Table D1, 90 μM ATP): > 1 µM
CNC(=O)N1CCC(CC(=O)Nc2ccc3cc2CCc2cncc(c2)Nc2ncc(Cl)c(n2)N3)C1 (centres unmarked) [Example A93, 3-(2-{[6-Chloro-2,4,8,18,22-pentaazatetracyclo[14.3.1.1(3,7).1(9,13)]docosa-1(20),3(22),4,6,9(21),10,12,16,18-nonaen-12-yl]amino}-2-oxoethyl)-N-methylpyrrolidine-1-carboxamide bis(trifluoroacetate)] | – | – | – | – | 0.043 | 0.112 | 0.024 | 0.022 | 30 | –
CN(C)C(=O)N1CCC(CC(=O)Nc2ccc3cc2CCc2cncc(c2)Nc2ncc(Cl)c(n2)N3)CC1 [Example A95, 4-(2-{[6-Chloro-2,4,8,18,22-pentaazatetracyclo[14.3.1.1(3,7).1(9,13)]docosa-1(20),3(22),4,6,9(21),10,12,16,18-nonaen-12-yl]amino}-2-oxoethyl)-N,N-dimethylpiperidine-1-carboxamide bis(trifluoroacetate)] | – | – | – | – | 0.009 | 0.16 | 0.023 | 0.0091 | 18 | –
CC(C)C(=O)N1CCC(CC(=O)Nc2ccc3cc2CCc2cccc(c2)Nc2ncc(Cl)c(n2)N3)CC1 [Example A89, N-[6-Chloro-2,4,8,22-tetraazatetracyclo[14.3.1.1(3,7).1(9,13)]docosa-1(20),3(22),4,6,9(21),10,12,16,18-nonaen-12-yl]-2-(1-isobutyrylpiperidin-4-yl)acetamide trifluoroacetate] | – | – | – | – | 0.003 | 0.057 | 0.0037 | 0.0065 | 29 | –
O=C(COc1ccc2cc1CCc1cccc(c1)Nc1ncc(Cl)c(n1)N2)N1CCN(C(=O)Nc2ccccc2)CC1 [Example A13, 4-({[6-Chloro-2,4,8,22-tetraazatetracyclo[14.3.1.1(3,7).1(9,13)]docosa-1(20),3(22),4,6,9(21),10,12,16,18-nonaen-12-yl]oxy}acetyl)-N-phenylpiperazine-1-carboxamide trifluoroacetate] | – | – | – | – | 0.042 | 0.044 | 0.0026 | 0.001 | 20 | –

The next lines start with results.

IC50 (TYK2; Table B1) [µM] | IC50 ([1]; Table B1) [µM] | IC50 ([2]; Table B1) [µM] | IC50 ([3]; Table B1) [µM] | IC50 (TYK2) [µM] | IC50 [1, 6] [µM] | IC50 [2, 7] [µM] | IC50 [3, 8] [µM] | ALK % of inhibition at a concentration of 500 nM or 1 mM [4, 9] [%] | SMILES | further results
0.098 | > 0.4 | 0.179 | 0.017 | – | – | – | – | – | CN(Cc1ccc2cc1CCc1cncc(c1)Nc1ncc(Cl)c(n1)N2)CC1CCN(C(=O)c2ccno2)CC1 [Example B345, 1-[6-Chloro-2,4,8,18,22-pentaazatetracyclo[14.3.1.1(3,7).1(9,13)]docosa-1(20),3(22),4,6,9(21),10,12,16,18-nonaen-12-yl]-N-{[1-(isoxazol-5-ylcarbonyl)piperidin-4-yl]methyl}-N-methylmethanamine tris(trifluoroacetate)] | ALK % of inhibition at a concentration of 500 nM or 1 mM [4, 5]: 40%
0.0058 | 0.0065 | 0.0032 | 0.003 | – | – | – | – | – | O=C(NCCNS(=O)(=O)c1ccccc1)Nc1ccc2cc1CCc1cccc(c1)Nc1ncc(Cl)c(n1)N2 [Example B329, N-{2-[({[6-Chloro-2,4,8,22-tetraazatetracyclo[14.3.1.1(3,7).1(9,13)]docosa-1(20),3(22),4,6,9(21),10,12,16,18-nonaen-12-yl]amino}carbonyl)amino]ethyl}benzenesulfonamide trifluoroacetate] | ALK % of inhibition at a concentration of 500 nM or 1 mM [4, 5]: 20%
> 0.2 | > 0.2 | > 0.2 | 0.1 | – | – | – | – | – | O=C(Nc1ccc2cc1CCc1cncc(c1)Nc1ncc(Cl)c(n1)N2)N1CCNCC1 [Example B285, N-[6-Chloro-2,4,8,18,22-pentaazatetracyclo[14.3.1.1(3,7).1(9,13)]docosa-1(20),3(22),4,6,9(21),10,12,16,18-nonaen-12-yl]piperazine-1-carboxamidetrihydrochloride] | ALK % of inhibition at a concentration of 500 nM or 1 mM [4, 10]: 38%
0.847 | > 10 | 0.44 | 0.0087 | – | – | – | – | – | O=C(Nc1ccc2cc1CCc1cncc(c1)Nc1ncc(Cl)c(n1)N2)N[C@H]1CCN(C(=O)c2ccno2)C1 [Example B271, N-[6-Chloro-2,4,8,18,22-pentaazatetracyclo[14.3.1.1(3,7).1(9,13)]docosa-1(20),3(22),4,6,9(21),10,12,16,18-nonaen-12-yl]-N′-[(3S)-1-(isoxazol-5-ylcarbonyl)pyrrolidin-3-yl]urea bis(trifluoroacetate)] | ALK % of inhibition at a concentration of 500 nM or 1 mM [4, 10]: 10%
0.226 | > 0.4 | 0.06 | 0.0077 | – | – | – | – | – | Cc1oncc1S(=O)(=O)N1CCC(CN(C)Cc2ccc3cc2CCc2cncc(c2)Nc2ncc(Cl)c(n2)N3)CC1 [Example B342, 1-[6-Chloro-2,4,8,18,22-pentaazatetracyclo[14.3.1.1(3,7).1(9,13)]docosa-1(20),3(22),4,6,9(21),10,12,16,18-nonaen-12-yl]-N-methyl-N-({1-[(5-methylisoxazol-4-yl)sulfonyl]piperidin-4-yl}methyl)methanamine tris(trifluoroacetate)] | ALK % of inhibition at a concentration of 500 nM or 1 mM [4, 5]: 37%
0.0023 | 0.0025 | 0.00028 | 0.00044 | – | – | – | – | – | Cn1cccc1C(=O)Nc1ccc2cc1CCc1cccc(c1)Nc1ncc(Cl)c(n1)N2 [Example B50, N-[6-Chloro-2,4,8,22-tetraazatetracyclo[14.3.1.1(3,7).1(9,13)]docosa-1(20), 3(22),4,6,9(21),10,12,16,18-nonaen-12-yl]-1-methyl-1H-pyrrole-2-carboxamide trifluoroacetate] | IC50 ([4]; Table B1, cells without percent sign): 0.23 µM

Source: patent publication US8871753B2, “Macrocyclic compounds and their use as kinase inhibitors” (Incyte Corporation, priority 2008, dated 2014)
